Experimental data published in patent US20130039905A1 (Neurotec Pharma, S.L., priority 2010, published 2013).
Entries after “also recorded” stand apart in the source; their conditions may differ.

How the values were obtained:
EAE mice [1] = assay: EAE in mice, treatment starting at immunization (pre-treatment, Example 2); type: in vivo; conditions: for global mean decrease of the clinical score (Area Under the Curve vs placebo): pre-treatment
[2] = Glycemia in mice receiving daily oral diazoxide (Example 1); type: in vivo; conditions: 30 days, female C57BL/6J mice, blood glucose at time 0 and 60 minutes
Method: Female C57BL/6J mice, 11 weeks of age, were purchased from Charles River and maintained on a 12:12 hr light:dark cycle, with standard chow and water freely available. The experiments began at 11:00 h. […] From day 4 on, glucose blood levels were measured every 3-4 days during the 30-day treatment period. Measurements were performed immediately before drug administration (time 0) and at 60 minutes. Blood samples were obtained from the saphenous vein and glucose levels were determined using a glucometer and glucose test strips (Accu-Chek® Aviva, Roche Diagnostics, Indianapolis, Ind, USA). For each group, hyperglycemia was considered when glucose concentration was equal or higher than 176 mg/dl.

[3] = test system: bupivacaine-induced actute CNS toxicity; conditions: 100 mg/kg (300 mg/m^2), mice; cited from earlier work
EAE mice [4] = assay: EAE in mice, treatment after first clinical signs (post-treatment, Example 3); type: in vivo; conditions: for global mean decrease of the clinical score (Area Under the Curve vs placebo): post-treatment
Method: Experimental Autoimmune Encephalomyelitis induction and clinic scoring of mice were performed as described on Example 2.
The day scoring a value of 1, every mouse was randomly assigned to a diazoxide-treatment or placebo-control group. The period of treatment was 15 days and the drug was dissolved in a vehicle consisting in 98.5% water plus 1.5% of dimetyl sulfoxide (Sigma-Aldrich, St. Louis, Mo., USA) and was administered daily orally by gavage (p.o.), in a dose volume of 200 μl. […] One placebo-control group received a daily oral administration of vehicle.
The non-parametric Mann-Whitney-Wilcoxon test was performed to establish the differences between the treated groups and control group for each day. p<0.05 was considered as significant. To test the global effect of the treatment along all the study, the Area Under the Curve of treated groups and control group was compared using One-Way-Anova test. p<0.05 was considered as significant.

CC1=NS(=O)(=O)c2cc(Cl)ccc2N1 [Diazoxide]
global mean decrease of the clinical score (Area Under the Curve vs placebo) (EAE mice [1]; 0,8 mg/Kg (2.4 mg/m^2) daily p.o., p<0,01): 26% | daily EAE clinical score compared to control group (EAE mice [1]; 0.025 mg/kg (0.075 mg/m^2) daily p.o. for 30 days from immunization): significant difference at days fourteen, fifteen, eighteen and nineteen | daily EAE clinical score compared to placebo control group (EAE mice [1]; 0.8 mg/kg (2.4 mg/m^2) daily p.o. for 30 days from immunization): significantly lower at day thirteen and from day twenty-five to thirty; also recorded: significant in seven non-consecutive days | global mean decrease of the clinical score (Area Under the Curve vs placebo) (EAE mice [1]; 0,025 mg/Kg (0.075 mg/m^2) daily p.o., p<0.05): 26% | mean value for clinical score compared to control group after day 13 post-immunization (EAE mice [1]; all dosages tested (0.025 and 0.8 mg/kg) daily p.o. from immunization): better mean value for clinical score | hyperglycemia (glucose concentration equal or higher than 176 mg/dl) ([2]; 0.05 mg/kg (0,15 mg/m^2) daily p.o.): none of the two doses tested in this study produced hyperglycemia | hyperglycemia (glucose concentration equal or higher than 176 mg/dl) ([2]; 1 mg/kg (3 mg/m^2) daily p.o.): none of the two doses tested in this study produced hyperglycemia | period of latency of the convulsions caused by bupivacaine [3]: increasing the period of latency of the convulsions | daily EAE clinical score compared to control group (EAE mice [4]; 0.05 mg/kg (0.15 mg/m^2) daily p.o. for 15 days from score 1): significant difference at the final phase of the study (day 15) | global mean decrease of the clinical score (Area Under the Curve vs placebo) (EAE mice [4]; 0.05 mg/kg (0.15 mg/m^2) daily p.o.): 19% | daily EAE clinical score compared to placebo-control group (EAE mice [4]; 0.8 mg/kg (2.4 mg/m^2) daily p.o. for 15 days from score 1, day six to day fifteen): all clinical values were significantly lower; also recorded: significant reduction of the daily clinical score in ten consecutive days | global mean decrease of the clinical score (Area Under the Curve vs placebo) (EAE mice [4]; 1 mg/kg (3 mg/m^2) daily p.o., p<0.05): 40% | daily EAE clinical score compared to control group (EAE mice [4]; 4 mg/kg (12 mg/m^2) daily p.o. for 15 days from score 1): significant reduction in the clinical score at day four and at day five | global mean decrease of the clinical score (Area Under the Curve vs placebo) (EAE mice [4]; 4 mg/kg (12 mg/m^2) daily p.o.): 15% | morbidity and mean daily clinical score compared to placebo-control group (EAE mice [4]; 0.05, 0.8 and 1 mg/kg daily p.o. for 15 days from score 1): significant reduction of morbidity and of the mean daily clinical score | daily EAE clinical score compared to placebo-control group (EAE mice [4]; 1 lmg/kg (3 mg/m^2) daily p.o. for 15 days from score 1, day four to day fifteen): significantly lower from day four
